# Data published in patent publication US20120088803A1, “CONTROL AGENT FOR SOFT ROT AND CONTROL METHOD FOR THE SAME” (Ishihara Sangyo Kaisha, Ltd, priority 2009, published 2012).
# Test system: Erwinia carotovora (potato Erwinia carotovora)
# Experiment: Test for growth inhibition of potato Erwinia carotovora (PSA medium plate)
# Assay type: cell-based
# Details: for Growing state of Erwinia carotovora (formed colonies): PSA medium, 25 degrees C., 4 days, two plates per cell
# Procedure: Reference test example: Test for growth inhibition of potato Erwinia carotovora
# A test for growth inhibition of Erwinia carotovora in the case of direct application of the control agent to Erwinia carotovora was performed. To previously melted PSA medium (55 degrees C.), a predetermined amount of a pesticide 3-chloro-N-(3-chloro-5-trifluoromethyl-2-pyridyl)-alpha,alpha,alpha-trifluoro-2,6-dinit ro-p-toluidine (fluazinam, Frowncide SC (trade name), manufactured by Ishihara Sangyo Kaisha, Ltd.), ethaboxam wettable powder (Ethaboxam, Gardian (trade name), manufactured by LG Chemical), or streptomycin (Mycin wettable powder (trade name), manufactured by Hokko Chemical Industry Co., Ltd.) and a suspension of Erwinia carotovora (potato Erwinia carotovora) were added and the resulting mixture was stirred well, and then, poured in a plate. Then, the plate was cultured at 25 degrees C. for 4 days, and the growing state of Erwinia carotovora was examined. Thereafter, the formed colonies were examined according to the following three criteria. • +: Equal to the colonies of the untreated group • Plus or minus: Apparently less than the colonies of the untreated group • −: Almost no colonies
structure (smiles),measurement,setting,value
"CCNc1nc(CC)c(C(=O)NC(C#N)c2cccs2)s1 (stereo not shown) [Ethaboxam WP, ethaboxam]",Growing state of Erwinia carotovora (formed colonies),Active ingredient concentration 100 ppm,"+, +"
same,Growing state of Erwinia carotovora (formed colonies),Active ingredient concentration 500 ppm,"+, +"
same,Growing state of Erwinia carotovora (formed colonies),Active ingredient concentration 1000 ppm,"+, +"
same,Growth inhibition of Erwinia carotovora (in words),"active ingredient concentration of 1000 ppm, direct application",did not inhibit the growth
